Assay results: patent US20230075521A1, “RESVERATROL PHARMACEUTICAL COMPOSITIONS AND METHODS OF USE THEREOF” (priority 2021, published 2023)
“And” between values parts separate entries of the source, which are not always exact repeats. Identical values can stand only once.

Key:
[1] = system: 3×Tg-AD mice; experiment: Behavior battery, long-term prophylactic treatment; format: in vivo, mouse; conditions: 50 mg/kg oral, at 6 or 10 months of age
Method: For long-term prophylactic studies, a cohort of 30 mice was used (50% males and females). […] JOTROL™ and RSV were prepared under red light and administered using a red syringe and metal gavage to prevent light exposure. Mice were treated 5 days a week for 9 months beginning at 4 months of age (prior to disease development). As detailed below, a battery of behavioral tests was conducted, including Y-maze spontaneous alternation, open field, rotarod, novel object recognition, Barnes maze, and object location memory. A battery of behavior tests designed to test motor coordination skills, anxiety, spatial learning and reference memory was performed on all long-term-treated mice. Motor coordination was evaluated using rotarod. Anxiety was evaluated by open field and elevated 0-maze tests. […] Motor coordination was assessed by the latency to fall on the very first trial between treatment groups. Motor learning was measured both within and between sub-jects by comparing the first trial with subsequent trials and is evident as an increased latency to fall over time. […] Distance, velocity, and time in center versus periphery were recorded and analyzed. Anxiety-related behavior can be determined by the duration spent in the center of the field versus the periphery. […] Total arm entries and percent of spontaneous alternations were recorded. […]

[2] = system: ERC cytokines and chemokines; experiment: Entorhinal cortex (ERC) cytokine and chemokine levels (48-Plex ProcartaPlex, Luminex); format: in vivo, 3×Tg-AD mouse
Method: At study endpoints (age 15 months for sub-chronic study, age 13 months for long-term study), mice were anaesthetized with isoflurane and blood was collected by transcardial puncture. Blood was stored on ice and then centrifuged at 10,000×g at 4° C. for 10 min to collect serum and stored at −80° C. until use. The brain was then extracted and quickly dissected on ice to collect prefrontal cortex (PFC), hippocampus, entorhinal cortex (ERC), and cerebellum, which were immediately frozen in liquid nitrogen. The samples were stored at −80° C. until processed for RNA or protein extraction. For each mouse, brain regions from one hemisphere were used for RNA preparation and qPCR and sections from the other hemisphere were used for protein work including ELISAs.
Protein lysates were extracted by sonicating tissue in M-PER Mammalian Protein Extraction Reagent (Thermo Fisher Scientific) supplemented with protease inhibitor (Thermo Fisher Scientific) and phosphatase inhibitor (Thermo Fisher Scientific). Total protein was quantified using Pierce BCA Protein Assay Kit (Thermo Fisher Scientific) and read at 562 nm using EnVision (Perkin Elmer).
Human Aβ1-42, Aβ1-40, phosphorylated tau Ser 396, phosphorylated tau Thr181, and total tau were measured in brain tissue by enzyme linked immuno-sorbent assay (ELISA; Invitrogen by Thermo) and normalized to total protein. All the kits were used as per the manufacturer's instructions and measured using the EnVision® multimode plate reader (Perkin Elmer). Serum and brain tissue protein extracts were analyzed for cytokine and chemokine levels using the Immune Monitoring 48-Plex Mouse ProcartaPlex™ Panel (Invitrogen by Thermo) according to manufacturer's standard protocol and read using Luminex xMAP (multi-analyte profiling) technology.

[3] = female 3×Tg-AD mice, 50 mg/kg oral, 9 months
[4] = female 3×Tg-AD mice, 50 mg/kg oral, 9 months, 50 mg/kg
[5] = male 3×Tg-AD mice, 50 mg/kg oral, 9 months
[6] = male 3×Tg-AD mice, 50 mg/kg oral, 9 months, 50 mg/kg

Oc1ccc(/C=C/c2cc(O)cc(O)c2)cc1 [RSV, (trans-)resveratrol]
Y-maze spontaneous alternation performance [1]: No significant group differences | IFNg ERC level, change vs vehicle [2, 3]: -0.64 pg/mL | IL-1b ERC level, change vs vehicle [2, 3]: -1.12 pg/mL | IL-2 ERC level, change vs vehicle [2, 3]: 18.07 pg/mL | IL-2RA ERC level, change vs vehicle [2, 3]: -0.95 pg/mL | IL-3 ERC level, change vs vehicle [2, 3]: -0.34 pg/mL | IL-5 ERC level, change vs vehicle [2, 3]: -6.60 pg/mL | IL-9 ERC level, change vs vehicle [2, 3]: 7.25 pg/mL | IL- 10 ERC level, change vs vehicle [2, 3]: 0.54 pg/mL | IL-12p70 ERC level, change vs vehicle [2, 3]: 1.75 pg/mL | IL-13 ERC level, change vs vehicle [2, 3]: 1.74 pg/mL | IL-17A ERC level, change vs vehicle [2, 3]: 0.69 pg/mL | IL-22 ERC level, change vs vehicle [2, 3]: -0.13 pg/mL | IL-25/IL-17 ERC level, change vs vehicle [2, 3]: -23.30 pg/mL | IL-27 ERC level, change vs vehicle [2, 3]: -0.87 pg/mL | IL-33 ERC level, change vs vehicle [2, 3]: -56.09 pg/mL | LIX ERC level, change vs vehicle [2, 3]: -12.67 pg/mL | M-CSF ERC level, change vs vehicle [2, 3]: -0.32 pg/mL | MCP-3 ERC level, change vs vehicle [2, 3]: 1.94 pg/mL | MIP-2 ERC level, change vs vehicle [2, 3]: -2.59 pg/mL | RANTES ERC level, change vs vehicle [2, 3]: -1.97 pg/mL | TNFa ERC level, change vs vehicle [2, 3]: -10.12 pg/mL | VEGF-A ERC level, change vs vehicle [2, 3]: 4.80 pg/mL | sRANKL ERC level, change vs vehicle [2, 3]: 0.70 pg/mL | IL-6 ERC level, change vs vehicle [2, 4]: 5.44 ± 2.1 pg/mL and 5.44 pg/mL | IL-7 ERC level, change vs vehicle [2, 4]: 40.12 ± 15.04 pg/mL and 40.12 pg/mL | IL-18 ERC level, change vs vehicle [2, 4]: -84.91 ± 35.55 pg/mL and -84.91 pg/mL | IL-19 ERC level, change vs vehicle [2, 4]: 105.7 ± 22.58 pg/mL and 105.70 pg/mL | IL-23 ERC level, change vs vehicle [2, 4]: 42.53 ± 10.42 pg/mL and 42.53 pg/mL | IL-28 ERC level, change vs vehicle [2, 4]: 146.9 ± 34.42 pg/mL and 146.90 pg/mL | IP-10 ERC level, change vs vehicle [2, 4]: 21.13 ± 4.32 pg/mL and 21.13 pg/mL | IFNg ERC level, change vs vehicle [2, 5]: 1.51 pg/mL | IL-1b ERC level, change vs vehicle [2, 5]: 0.97 pg/mL | IL-2 ERC level, change vs vehicle [2, 5]: 31.55 pg/mL | IL-3 ERC level, change vs vehicle [2, 5]: 0.18 pg/mL | IL-5 ERC level, change vs vehicle [2, 5]: 3.37 pg/mL | IL-6 ERC level, change vs vehicle [2, 5]: 2.70 pg/mL | IL-7 ERC level, change vs vehicle [2, 5]: 41.08 pg/mL | IL-9 ERC level, change vs vehicle [2, 5]: 19.29 pg/mL | IL-12p70 ERC level, change vs vehicle [2, 5]: 0.61 pg/mL | IL-13 ERC level, change vs vehicle [2, 5]: 5.16 pg/mL | IL-17A ERC level, change vs vehicle [2, 5]: 2.77 pg/mL | IL-18 ERC level, change vs vehicle [2, 5]: 42.33 pg/mL | IL-19 ERC level, change vs vehicle [2, 5]: 104.30 pg/mL | IL-22 ERC level, change vs vehicle [2, 5]: 2.18 pg/mL | IL-23 ERC level, change vs vehicle [2, 5]: 41.51 pg/mL | IL-25/IL-17 ERC level, change vs vehicle [2, 5]: 15.36 pg/mL | IL-27 ERC level, change vs vehicle [2, 5]: 2.75 pg/mL | IL-28 ERC level, change vs vehicle [2, 5]: 130.90 pg/mL | IL-33 ERC level, change vs vehicle [2, 5]: 64.64 pg/mL | IP-10 ERC level, change vs vehicle [2, 5]: 13.80 pg/mL | LIX ERC level, change vs vehicle [2, 5]: 16.39 pg/mL | M-CSF ERC level, change vs vehicle [2, 5]: 0.50 pg/mL | MCP-3 ERC level, change vs vehicle [2, 5]: 0.76 pg/mL | RANTES ERC level, change vs vehicle [2, 5]: 1.40 pg/mL | TNFa ERC level, change vs vehicle [2, 5]: 23.73 pg/mL | VEGF-A ERC level, change vs vehicle [2, 5]: 3.55 pg/mL | sRANKL ERC level, change vs vehicle [2, 5]: 2.59 pg/mL | IL-2RA ERC level, change vs vehicle [2, 6]: 0.77 ± 0.043 pg/mL and 0.77 pg/mL | MIP-2 ERC level, change vs vehicle [2, 6]: 7.51 ± 2.55 pg/mL and 7.51 pg/mL | IL-9 in ERC, increase vs vehicle ([2]; males and females combined): 65.4 ± 25.69 pg/mL
